Measurements from PubChem BioAssay AID588780 (Sanford-Burnham Center for Chemical Genomics, 2011).
Active and inactive are the calls of the source.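 How the source made its calls: active means compounds whose fitted half-maximal concentration in the cell-protection dose series is at or below a set limit; inactive means the rest.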

system: H9c2 cardiomyocytes, 2-deoxyglucose stress, ATP luminescence, 2 h; assay: H9c2 cell survival under 2-deoxyglucose stress – uHTS hits, dose response (AID 588780)

Q: `CCCc1cc(=O)oc2c(CNc3ccc(OCC)cc3)c(O)ccc12` was tested. Which IC50 did it give?
A: Its IC50 is 17.4 µM.

Q: With `O=c1cc(-c2ccc([N+](=O)[O-])cc2)c2ccc(O)cc2o1` as the compound, how does the IC50 read?
A: The IC50 was > 79 µM (inactive).

Q: `NC(=O)c1cccc(Nc2nc(C(N)COCc3ccccc3)cs2)n1` (configuration not stated) was tested. Which IC50 did it give?
A: Its IC50 is > 79 µM (inactive).

Q: How did the IC50 turn out when `CCOC(=O)C1=C(COC(=O)/C=C/c2ccc(F)cc2)NC(=O)NC1C` (configuration not stated) was run?
A: The IC50 was 16.2 µM.

Q: With `O=C(Cn1[nH]c(=O)c2ccccc2c1=O)OCC(=O)N(Cc1ccccc1)Cc1ccccc1` as the compound, how does the IC50 read?
A: The IC50 was > 79 µM (inactive).

Q: How did the IC50 turn out when `COc1ccc(-c2cc(=O)c3ccccc3[nH]2)cc1` was run?
A: The IC50 was 65 µM (inactive).

Q: With `O=C(CNC(=O)c1ccc(F)cc1)N/N=C/c1cc(Br)ccc1OC(=O)/C=C/c1ccco1` as the compound, how does the IC50 read?
A: The IC50 was > 79 µM (inactive).

Q: How did the IC50 turn out when `COc1cc(/C=N/NC(=O)c2ccncc2)ccc1OC(=O)c1ccccc1Cl` was run?
A: The IC50 was > 79 µM (inactive).

Q: With `COc1ccc(NC(=O)c2cc3c(=O)n(C)c4ccccc4c3n2C)cc1OC` as the compound, how does the IC50 read?
A: The IC50 was > 79 µM (inactive).

Q: Which IC50 does the source give for `C#CCOc1nc(Nc2cccc([N+](=O)[O-])c2)nc(OCC#C)n1` here?
A: Its IC50 is > 79 µM (inactive).

Q: For `CCOC(=O)C1=C(C)N=c2s/c(=C\c3ccncc3)c(=O)n2C1c1ccc2c(c1)OCO2` (configuration not stated), which IC50 is on record?
A: Its IC50 is 41.1 µM (inactive).

Q: With `N#Cc1ccccc1S(=O)(=O)N1CCN(c2nc(-c3cccnc3)nc3ccccc23)CC1` as the compound, how does the IC50 read?
A: Its IC50 is > 79 µM (inactive).

Q: Which IC50 does the source give for `NC(=O)c1ccccc1OCC(=O)NC12CC3CC(CC(C3)C1)C2` here?
A: Its IC50 is > 79 µM (inactive).

Q: For `CCN(CC(=O)Nc1ccc(OC)cc1)C(=O)c1cc(-c2cccs2)nn1-c1ccccc1`, which IC50 is on record?
A: The IC50 was 9.06 µM.

Q: Which IC50 does the source give for `COc1cc(C(=O)Nc2nc(OC)c(-c3ccccc3)c(OC)n2)cc(OC)c1OC` here?
A: Its IC50 is > 79 µM (inactive).

Q: For `COc1ccc2[nH]c(=O)c(CN(Cc3cccnc3)S(=O)(=O)c3ccccc3F)cc2c1`, which IC50 is on record?
A: The IC50 was > 79 µM (inactive).

Q: For `Cc1ncc(CO)c2c1Oc1nc(-c3ccccc3)nc(SCC(=O)N3CCCCC3)c1C2`, which IC50 is on record?
A: Its IC50 is > 79 µM (inactive).

Q: Which IC50 does the source give for `Cc1c(-c2ccccc2)oc2c(C(=O)OCC(=O)Nc3ccc(C(N)=O)cc3)cccc2c1=O` here?
A: Its IC50 is 9.94 µM.

Q: Which IC50 does the source give for `Cc1c(C#N)c(N)nc2c3c(sc12)NC(=O)CC3c1ccccc1` (configuration not stated) here?
A: The IC50 was > 79 µM (inactive).

Q: For `O=c1cc(CSc2nc3ccccc3c(=O)[nH]2)c2ccc(O)cc2o1`, which IC50 is on record?
A: Its IC50 is > 79 µM (inactive).

Q: For `CC(Oc1ccc(Br)cc1)C(=O)Nc1nc(-c2ccccn2)cs1` (configuration not stated), which IC50 is on record?
A: Its IC50 is > 79 µM (inactive).

Q: Which IC50 does the source give for `CC1Cc2ccccc2N1C(=O)Cn1nc(C(=O)O)c2ccccc2c1=O` (configuration not stated) here?
A: Its IC50 is > 79 µM (inactive).

Q: How did the IC50 turn out when `COc1cc(C(=O)Nc2cccc(-c3nnc(-c4ccco4)o3)c2)ccc1OC(C)=O` was run?
A: Its IC50 is > 79 µM (inactive).

Q: With `COc1cc(C(=O)N/N=C/c2ccc(OC(=O)c3ccccc3Cl)cc2)ccc1O` as the compound, how does the IC50 read?
A: Its IC50 is > 79 µM (inactive).

Q: How did the IC50 turn out when `COc1ccc(C(=O)NNC(=O)c2ccc3ccccc3n2)cc1` was run?
A: The IC50 was > 79 µM (inactive).

Q: Which IC50 does the source give for `CC(C)[C@H](NC(=O)c1ccccc1Cl)C(=O)Nc1nc(-c2ccccn2)cs1` here?
A: Its IC50 is > 79 µM (inactive).

Q: `O=C(COC(=O)CCc1nc2ccccc2c(=O)[nH]1)Nc1c(Cl)cccc1C(F)(F)F` was tested. Which IC50 did it give?
A: Its IC50 is > 79 µM (inactive).

Q: `CCOC(=O)c1cc(-c2ccc(/C=N\n3cnnc3)o2)ccc1Cl` was tested. Which IC50 did it give?
A: Its IC50 is > 79 µM (inactive).

Q: With `Cc1sc2nc(SCC(=O)NCc3ccco3)[nH]c(=O)c2c1C` as the compound, how does the IC50 read?
A: Its IC50 is > 79 µM (inactive).

Q: How did the IC50 turn out when `C[C@H]1Cn2cnc(C(=O)N[C@@H](Cc3c[nH]c4ccccc34)C(=O)OC(C)(C)C)c2C(=O)N1` was run?
A: The IC50 was 21 µM.

Q: For `NS(=O)(=O)c1cccc(NC(=O)COC(=O)Cc2n[nH]c(=O)c3ccccc23)c1`, which IC50 is on record?
A: The IC50 was > 79 µM (inactive).

Q: With `COCCCN(Cc1ccco1)C(=O)Cn1ncc2c([nH]c3ccccc32)c1=O` as the compound, how does the IC50 read?
A: Its IC50 is 13.8 µM.

Q: For `Cc1ccc(NCc2ccc(O)c3ncccc23)cc1C`, which IC50 is on record?
A: Its IC50 is > 79 µM (inactive).

Q: `Cc1c(C(=O)NCC2COc3ccccc3O2)oc2ccc(S(=O)(=O)N3CCOCC3)cc12` (configuration not stated) was tested. Which IC50 did it give?
A: Its IC50 is > 79 µM (inactive).

Q: How did the IC50 turn out when `Cc1cccc(NC(=O)c2nc[nH]c2C(=O)NCCCCCCNC(=O)c2[nH]cnc2C(=O)Nc2cccc(C)c2)c1` was run?
A: Its IC50 is > 79 µM (inactive).

Q: For `N#C/C(=C\c1ccc(-c2cccc([N+](=O)[O-])c2)o1)C(=O)NCCN1CCOCC1`, which IC50 is on record?
A: The IC50 was > 79 µM (inactive).

Q: For `N#Cc1cnn2cc(-c3ncc(C(F)(F)F)cc3Cl)cnc12`, which IC50 is on record?
A: The IC50 was 27.6 µM.

Q: For `Oc1c(Br)cc(Br)cc1C=Nc1ccc2c(c1)OCCO2`, which IC50 is on record?
A: Its IC50 is 24.4 µM.

Q: Which IC50 does the source give for `N#CC1=C(N)Oc2c(O)cc3ccccc3c2C1c1ccsc1` (configuration not stated) here?
A: The IC50 was > 79 µM (inactive).

Q: With `CCc1nc2ccc(C(=O)Nc3cccc(OCC(=O)N(C)C)c3)cn2c1N(C)Cc1cc2ccccc2s1` as the compound, how does the IC50 read?
A: The IC50 was 11.8 µM.

Q: `Cc1ccc(C(=O)CSc2nc3ccccc3c(=O)[nH]2)cc1` was tested. Which IC50 did it give?
A: Its IC50 is > 79 µM (inactive).

Q: `NC(=O)c1ccsc1NC(=O)COC(=O)Cc1n[nH]c(=O)c2ccccc12` was tested. Which IC50 did it give?
A: The IC50 was > 79 µM (inactive).

Q: Which IC50 does the source give for `CCOC(=O)c1c(C)[nH]c(C(=O)COc2ccc3ccc(=O)oc3c2)c1C` here?
A: The IC50 was > 79 µM (inactive).

Q: Which IC50 does the source give for `O=C(c1ccco1)N1CCN(Cc2nc3ccc([N+](=O)[O-])cc3c(=O)n2-c2ccccc2F)CC1` here?
A: Its IC50 is > 79 µM (inactive).

Q: How did the IC50 turn out when `CCOC(=O)N1CCN(S(=O)(=O)c2ccc(C(=O)NNc3nc4c(C)cccc4s3)cc2)CC1` was run?
A: The IC50 was > 79 µM (inactive).

Q: Which IC50 does the source give for `CCOC(=O)c1ccccc1OCc1cc(/C=N/NC(=O)c2cccnc2)ccc1OC` here?
A: Its IC50 is 10.7 µM.

Q: With `CSCC[C@H](NC(=O)OC(C)(C)C)C(=O)N/N=C/c1cccc2cccnc12` as the compound, how does the IC50 read?
A: Its IC50 is 30.9 µM (inactive).

Q: `COC(=O)c1ccc(C(C(=O)NCc2ccccc2)N(Cc2cccs2)C(=O)c2cnccn2)cc1` (configuration not stated) was tested. Which IC50 did it give?
A: The IC50 was 14.7 µM.

Q: How did the IC50 turn out when `COc1ccc(NC(=O)C(OC(=O)c2ccc([N+](=O)[O-])o2)c2ccccc2)cc1Cl` (configuration not stated) was run?
A: Its IC50 is > 79 µM (inactive).

Q: With `CCn1nc(C(=O)NNC(=O)c2cc(Cl)ccc2OC)c2ccccc2c1=O` as the compound, how does the IC50 read?
A: The IC50 was 74 µM (inactive).

Q: `O=C(COc1ccc(F)cc1Cl)Nc1nc(-c2ccccn2)cs1` was tested. Which IC50 did it give?
A: The IC50 was > 79 µM (inactive).

Q: With `O=C1NC(c2ccc(Cl)c([N+](=O)[O-])c2)Nc2ccccc21` (configuration not stated) as the compound, how does the IC50 read?
A: Its IC50 is > 79 µM (inactive).

Q: How did the IC50 turn out when `c1cncc(-c2nc(NCC3COc4ccccc4O3)c3ccccc3n2)c1` (configuration not stated) was run?
A: Its IC50 is > 79 µM (inactive).

Q: With `O=C1c2cccnc2Oc2ccc(Cl)cc2N1Cc1ccc(F)cc1` as the compound, how does the IC50 read?
A: The IC50 was > 79 µM (inactive).

Q: For `O=C(Nc1ccc(CN2CCOCC2)cc1)c1ccc(-c2cccc([N+](=O)[O-])c2)o1`, which IC50 is on record?
A: The IC50 was > 79 µM (inactive).

Q: With `CCOC(=O)Cc1c(C)nc2c(-c3ccc(Cl)cc3)c[nH]n2c1=O` as the compound, how does the IC50 read?
A: The IC50 was > 79 µM (inactive).

Q: `COc1ccccc1C(=O)COC(=O)Cn1[nH]c(=O)c2ccccc2c1=O` was tested. Which IC50 did it give?
A: Its IC50 is > 79 µM (inactive).

Q: How did the IC50 turn out when `COc1ccccc1NC(=O)c1ccc(NC(=O)Cc2n[nH]c(=O)c3ccccc23)cc1` was run?
A: Its IC50 is > 79 µM (inactive).

Q: For `CC(C)(C)C(=O)Nc1cccc(-c2nnc(-c3cccc(NC(=O)C(C)(C)C)c3)o2)c1`, which IC50 is on record?
A: The IC50 was > 79 µM (inactive).

Q: With `C/C(=N\NC(=O)c1nnn(-c2nonc2N)c1CSc1ccc(C)cc1)c1cccnc1` as the compound, how does the IC50 read?
A: Its IC50 is > 79 µM (inactive).

Q: With `O=C(N/N=C/c1ccncc1)c1ccc(COc2cccc3cccnc23)cc1` as the compound, how does the IC50 read?
A: Its IC50 is > 79 µM (inactive).

Q: How did the IC50 turn out when `Cc1ccc(S(=O)(=O)N2CCN(C(=O)c3cc(=O)[nH]c4ccccc34)CC2)c(C)c1` was run?
A: Its IC50 is 16.8 µM.

Q: `CCN(CC(=O)Nc1c(F)cccc1F)C(=O)CCc1nc2ccccc2c(=O)[nH]1` was tested. Which IC50 did it give?
A: Its IC50 is > 79 µM (inactive).

Q: How did the IC50 turn out when `CC1(C)Cc2c(c(N3CCOCC3)nc3sc4c(NN)ncnc4c23)CS1` was run?
A: Its IC50 is > 79 µM (inactive).

Q: For `COc1ccc(/C=N/NC(=O)c2sccc2OCc2ccc(F)cc2)cc1OC`, which IC50 is on record?
A: Its IC50 is 15.4 µM.

Q: Which IC50 does the source give for `O=c1[nH]nc(CNc2ccc(O)cc2)c2ccccc12` here?
A: Its IC50 is > 79 µM (inactive).

Q: How did the IC50 turn out when `COc1cc(-c2cc(C(=O)N3CCN(c4ccccn4)CC3)c3ccccc3n2)cc(OC)c1OC` was run?
A: Its IC50 is 14.4 µM.
